Assay [1] deals with T1, IκBα kinase (Homo sapiens, UniProt O14920+O15111).
T1 construct: IC50 against IκBα kinase activity; FI; Km of IκBα kinase for ATP
Put plainly: ELISA-based IκBα kinase assay (ELISA scheme 1), MEKK1-activated partially purified kinase. The format is biochemical. The settings on record: 10 μM inhibitor added to activated kinase before the biotinylated peptide substrate. The protocol: IκBα kinase was prepared by first diluting S-100 HeLa cell extracts [1:10] with 50 mM HEPES pH 7.6 and 40% ammonium sulfate was added for 30 minutes on ice. Collected pellet was redissolved to a minimum volume, centrifuged, and filtered through a 0.22 μm filter. Sample was loaded onto a Superose-6 FPLC column equilibrated with 50 mM HEPES pH 7.6. 25 mM NaCl, 1 mM DTT, operated at 4° C. at 1 mL/min flow rate. Fractions were assayed for activity by the gel-shift assay. Active fractions peaked at ˜700 kD were collected, pooled, and protein concentration was determined.
ELISA scheme 1—Biotinylated peptide substrate at 500 μM was incubated with partially purified kinase alone, with 30 nM MEKK1Δ alone, or in combination for 2 hrs at 37° C. with 2.5 mM ATP, 10 mM DTT, 5 μM okadaic acid in the presence or absence of inhibitor. Kinase reactions were quenched by diluting [1:50] with PBS-BTE (PBS, 0.1% BSA, 0.05% Tween-20, 20 mM EDTA). […] Color development was performed with o-phenylenediamine dihydrochloride (Sigma FAST o-PD) and signals were recorded at 450 nm. Alternatively, peroxidase reaction was quenched with 3 N HCl and signals were read at 492 nm.
When control primary antibody which recognizes all IκBα species was used, all samples containing biotinylated peptide substrate produced peroxidase activity as detected by the o-PD conversion. […]
On the technique in general: In an ELISA, binding on a coated surface is turned into a signal by an enzyme label.

A further assay deals with NF-κB. Briefly: Activation of NF-κB in vivo by agonists. The format is cell-based. As to conditions: agonists including PMA and ionomycin, TNF-α, and LPS.
Assay [2] deals with IκBα. Put plainly: Phosphorylation and ubiquitination of 35S-labeled IκBα in HeLa cell cytoplasmic extracts with okadaic acid. The format is biochemical, human. As to conditions: 10 μM; in the presence of okadaic acid; FIG. 9.
From the text: ^35S-labeled IκBα was synthesized by in vitro translation, and used as a substrate for phosphorylation (bottom panel, short exposure) and ubiquitination (top panel, long exposure) assays in HeLa cell cytoplasmic extracts in the presence of okadaic acid (Chen et al., Genes and Dev. 9:1586-1597 (1995)). Various agents were included in the reaction to test their ability to inhibit the phosphorylation and ubiquitination of IκBα.
The test system of assay [3] is IκBα kinase. Put plainly: Phosphorylation of IκBα by partially purified IκBα kinase (gel-based). The format is biochemical, human. The protocol: Unless otherwise indicated, phosphorylation of IκBα was usually carried out at 37° C. for 1 hour in a reaction volume of 10 μl containing: an ATP regenerating system (50 mM Tris-HCl, pH 7.6, 5 mM MgCl2, 2 mM ATP, 10 mM creatine phosphate, 3.5 units/ml creatine kinase, 0.6 units/ml inorganic pyrophosphatase), 0.5 μl of in vitro translated ^35S-labeled IκBα, 2 μg/ml of recombinant RelA homodimer (to form complex with IκBα), 3 μM okadaic acid, 60 μM ubiquitin, 50 nM E1 (rabbit), 1 μM UBC4 (yeast) or GST-UBCh5 (human), and 0.5-3 μl of IκBα kinase containing fractions. In some experiments, HeLa fraction I (1 mg/ml) was used as a source of E2s. At the end of each reaction, SDS sample buffer was added to quench the reaction, and the samples were analyzed by SDS-PAGE (9%) followed by flourography. Phosphorylation of IκBα was quantitated by PhosphorImager analysis. Ubiquitination of IκBα has been described previously (Chen, Z. J. et al., Genes & Dev. 9:1586-1597 (1995)).

For assay [4], the system named is IκBα. As to conditions: previously shown (Beg 1993; Henkel 1993; Sun 1993); cited from earlier work.
Assay [5] addresses T1, IκBα kinase. Briefly: Polypeptide inhibition of 35S-IκBα phosphorylation by IκBα kinase (gel-based). The class given is biochemical. As to conditions: ubiquitination-activated kinase, 37° C., 40 min, FIG. 20. The protocol: An N-terminal fragment (residues 5-72) of IκBα was expressed in E. coli as a recombinant protein containing a poly-histidine (His6) tag at the N-terminus.Protein purification was accomplished by nickel affinity chromatography. As a control, the full-length IκBα (SEQ ID NO:9; Haskill (1991) Cell 65:1281) was also expressed and purified in a similar fashion.
Recombinant full-length IκBα or IκBα (5-72) was added at indicated concentration to 10 μl of reaction mixture containing an ATP regenerating system (50 mM Tris at pH 7.6, 5 mM MgCl2, 2 mM ATP, 10 mM phosphocreatine, 3.5 U/ml creatine phosphokinase, 0.6 U/ml inorganic pyrophosphatase), 60 μM Ubiquitin, 50 nM E1, 1 μM UBC4, 0.5 μl of in vitro translated ^35S-IκBα, 0.5 μl of IκBα kinase (fraction 19 from Superdex 200 column), and 3 μM okadaic acid. After incubation at 37° C. for 40 min., the reaction was quenched by the addition of SDS sample buffer, separated by electrophoresis on 9% SDS-polyacrylamide gel, and then analyzed by fluorography.

T1 sequence (O14920 whole entry): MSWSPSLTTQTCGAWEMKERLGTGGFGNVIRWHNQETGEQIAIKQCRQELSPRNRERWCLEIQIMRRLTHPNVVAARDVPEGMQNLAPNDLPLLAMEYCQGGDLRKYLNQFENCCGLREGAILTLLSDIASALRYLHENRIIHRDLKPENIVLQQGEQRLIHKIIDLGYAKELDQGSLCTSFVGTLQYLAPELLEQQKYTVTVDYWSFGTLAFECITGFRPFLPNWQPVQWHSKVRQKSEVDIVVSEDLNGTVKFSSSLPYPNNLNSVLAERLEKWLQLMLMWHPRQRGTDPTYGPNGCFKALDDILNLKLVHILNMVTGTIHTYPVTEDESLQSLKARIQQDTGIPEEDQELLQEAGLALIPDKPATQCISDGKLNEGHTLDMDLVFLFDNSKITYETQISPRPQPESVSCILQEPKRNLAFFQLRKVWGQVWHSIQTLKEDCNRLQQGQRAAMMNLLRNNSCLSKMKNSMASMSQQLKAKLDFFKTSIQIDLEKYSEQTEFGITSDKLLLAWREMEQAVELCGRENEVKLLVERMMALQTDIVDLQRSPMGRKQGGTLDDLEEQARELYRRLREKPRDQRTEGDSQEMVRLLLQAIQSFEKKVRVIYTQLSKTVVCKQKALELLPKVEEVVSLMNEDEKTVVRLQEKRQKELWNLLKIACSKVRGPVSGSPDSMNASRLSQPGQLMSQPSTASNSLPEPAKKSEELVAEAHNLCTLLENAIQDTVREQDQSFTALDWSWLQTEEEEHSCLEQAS
T1 sequence (O15111 whole entry): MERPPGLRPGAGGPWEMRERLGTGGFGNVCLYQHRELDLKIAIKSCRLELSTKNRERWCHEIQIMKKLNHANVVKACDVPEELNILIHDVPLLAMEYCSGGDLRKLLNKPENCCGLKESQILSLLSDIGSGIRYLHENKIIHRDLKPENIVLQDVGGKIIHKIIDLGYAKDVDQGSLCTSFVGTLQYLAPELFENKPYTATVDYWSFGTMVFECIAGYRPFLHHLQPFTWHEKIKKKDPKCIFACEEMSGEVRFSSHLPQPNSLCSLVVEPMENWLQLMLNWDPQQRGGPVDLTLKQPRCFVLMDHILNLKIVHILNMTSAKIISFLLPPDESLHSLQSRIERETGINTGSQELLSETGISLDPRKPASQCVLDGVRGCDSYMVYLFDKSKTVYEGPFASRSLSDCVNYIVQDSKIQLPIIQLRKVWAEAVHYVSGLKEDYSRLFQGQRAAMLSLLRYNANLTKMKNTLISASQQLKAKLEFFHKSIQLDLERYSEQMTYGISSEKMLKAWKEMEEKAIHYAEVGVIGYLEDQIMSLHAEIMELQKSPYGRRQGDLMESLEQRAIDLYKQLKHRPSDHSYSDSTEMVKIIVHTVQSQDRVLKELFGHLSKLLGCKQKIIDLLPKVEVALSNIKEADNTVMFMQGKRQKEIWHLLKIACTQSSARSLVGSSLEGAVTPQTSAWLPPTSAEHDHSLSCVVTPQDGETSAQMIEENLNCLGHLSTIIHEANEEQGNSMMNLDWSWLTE
T1 sequence (Q9Y6K9 whole entry partner): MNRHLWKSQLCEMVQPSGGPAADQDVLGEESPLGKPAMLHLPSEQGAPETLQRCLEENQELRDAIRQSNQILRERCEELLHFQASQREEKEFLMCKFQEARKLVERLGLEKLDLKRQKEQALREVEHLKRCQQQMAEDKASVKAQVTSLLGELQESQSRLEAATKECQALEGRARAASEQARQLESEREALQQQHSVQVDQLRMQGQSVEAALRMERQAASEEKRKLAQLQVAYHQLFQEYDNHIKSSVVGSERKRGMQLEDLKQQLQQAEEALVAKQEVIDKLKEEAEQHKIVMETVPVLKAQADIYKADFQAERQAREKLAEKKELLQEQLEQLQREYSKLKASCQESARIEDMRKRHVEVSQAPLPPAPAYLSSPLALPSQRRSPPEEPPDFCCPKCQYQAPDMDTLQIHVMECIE

Take `COC(=O)[C@@]1(O)C[C@H]2O[C@]1(C)n1c3ccccc3c3c4c(c5c6ccccc6n2c5c31)C(=O)NC4` [K252a]: on IκBα kinase [1], the “inhibition of MEKK1 dependent kinase activity” value was “fully inhibited”. Besides, in the assay with NF-κB, the “inhibition of the activation of NF-κB in vivo” value is “inhibit the activation of NF-κB in vivo”. Moreover, the “inhibition of phosphorylation and ubiquitination of IκBα in HeLa cell extracts” value in the assay with IκBα [2] is “Inhibit”. The “inhibition of phosphorylation of IκBα by partially purified IκBα kinase” value with IκBα kinase [3] is “inhibits”.

As for `Cc1ccc(S(=O)(=O)N[C@@H](CCCCN)C(=O)CCl)cc1` [TLCK, Nα-p-tosyl-L-lysine chloromethyl ketone], the “inhibition of phosphorylation and degradation of IκBα in vivo” value in the assay on IκBα [4] is “inhibit”.

On to “N-tosyl-L-phenylalanine chloromethyl ketone [TPCK]”, for which the “inhibition of phosphorylation and degradation of IκBα in vivo” value in the assay with IκBα [4] is recorded as “inhibit”.

B1: IκBα (5-72): N-terminal fragment (residues 5-72) of IκBα, recombinant from E. coli with N-terminal His6 tag (protein)
chain: HHHHHHAERPQEWAMEGPRDGLKKERLLDDRHDSGLDSMKDEEYEQMVKELQEIRLEPQEVPRGSEPWKQQLTE
B1: the results for the “inhibition of phosphorylation of 35S-IκBα by purified IκBα kinase” value in the assay with IκBα kinase [5] and with IκBα kinase [5] (listed as amino acid residues 5-72 of IκBα) were “inhibition” and “selectively inhibits”, respectively.

B2: full-length IκBα: recombinant full-length IκBα (SEQ ID NO:9), expressed and purified as control (protein, listed as Homo sapiens)
chain: MFQAAERPQEWAMEGPRDGLKKERLLDDRHDSGLDSMKDEEYEQMVKELQEIRLEPQEVPRGSEPWKQQLTEDGDSFLHLAIIHEEKALTMEVIRQVKGDLAFLNFQNNLQQTPLHLAVITNQPEIAEALLGAGCDPELRDFRGNTPLHLACEQGCLASVGVLTQSCTTPHLHSILKATNYNGHTCLHLASIHGYLGIVELLVSLGADVNAQEPCNGRTALHLAVDLQNPDLVSLLLKCGADVNRVTYQGYSPYQLTWGRPSTRIQQQLGQLTLENLQMLPESEDEESYDTESEFTEFTEDELPYDDCVFGGQRLTL
On to B2, for which the “inhibition of phosphorylation of 35S-IκBα by purified IκBα kinase” value in the assay with IκBα kinase [5] was “inhibition”.

Source of the values: patent US7452977B2, “Antibody to a kinase capable of site-specific phosphorylation of IκBα” (Millennium Pharmaceuticals, Inc., priority 1996, dated 2008).
